Experiment: in vitro
Details: human, hela cells, % viability

| Structure (SMILES) | viability at 28.5 h, 10 µM [%] |
| --- | --- |
| CC(C)(C)OC(=O)N1CCc2[nH]nc(Nc3ccccc3)c2C1 [CBK281541] | 80 |
| O=C([C@@H]1C[C@@H]2C=C[C@H]1C2)N1CCC(c2noc3cc(F)ccc23)CC1 [CBK281542] | 76.5 |
| CCn1cc(CN2CCN(C(=O)C3C4CCCCC43)CC2)c(C)n1 (centres unmarked) [CBK281545] | 97.1 |
| CCCn1c(C)cc2cc(NC(=O)Cn3cc(C)nn3)ccc21 [CBK281548] | 104 |
| O=C(NCC1(c2ccccc2F)CCOCC1)[C@@H]1C[C@@H]2C=C[C@H]1C2 [CBK281552] | 91.6 |
| CCOc1ccc2c(c1)cc(C(=O)NCc1cc(CC)no1)n2C [CBK281553] | 95.5 |
| CCc1cc(CNC(=O)c2cc(C)nc3c(C)cccc23)on1 [CBK281554] | 108 |
| CCc1cc(CNC(=O)c2ccc(C)c(-n3nc(C)cc3C)c2)on1 [CBK281557] | 91.7 |
| Cc1nc(C)n(CC(=O)NCCCc2ccc(Cl)cc2)n1 [CBK281559] | 90.9 |
| Cc1cc(C)n(CC(=O)NCCCc2ccc(Cl)cc2)c(=O)n1 [CBK281561] | 96.3 |
| CC(=O)N1CCC[C@@H](N)[C@@H]1c1ccccc1F [CBK281562] | 111 |
| N[C@@H]1CCCN(C(=O)C2CC2)[C@H]1c1ccccc1F [CBK281563] | 97 |
| Cc1ccc(C(=O)NCCCc2ccc(Cl)cc2)c(=O)n1C [CBK281567] | 80.4 |
| CCn1nc(C)c(-c2cncn2CCN(C)C2CCCC2)c1C [CBK281569] | 109 |
| CCN1CCc2cc(-c3cncn3CCCn3nc(C)cc3C)ccc21 [CBK281572] | 104 |
| COc1ccc2oc(C(=O)NC(C)c3cn(C)nc3C)cc2c1 (centres unmarked) [CBK281573] | 90.9 |
| Cn1nc(-c2ccc(F)cc2)cc1C(=O)NCCn1ccnc1 [CBK281576] | 87.8 |
| CC(C)(C)OC(=O)N1CCCC1C1COc2ccccc2C1=O (centres unmarked) [CBK281579] | 89.2 |
| CC(C)(C)C1CCc2onc(C(=O)NCCn3ccnc3)c2C1 (centres unmarked) [CBK281581] | 87.1 |
| O=C(NCCn1ccnc1)C1CC(=O)N(c2cccc(F)c2)C1 (centres unmarked) [CBK281582] | 105 |
| Cn1c(C(=O)Nc2ccc(Cn3cncn3)cc2)cc2cc(F)ccc21 [CBK281584] | 104 |
| Cc1nccn1CCCNC(=O)c1ccc(N2CCCC2)cc1 [CBK281589] | 81.6 |
| CCc1cc(CNC(=O)C(c2ccccc2)N2CCC(C)CC2)on1 (centres unmarked) [CBK281592] | 92.4 |

| Structure (SMILES) | viability at 28.5 h, 10 µM [%] |
| --- | --- |
| Cc1cc(C)n(C(C(=O)NCCOc2ccc(F)cc2)C(C)C)n1 (centres unmarked) [CBK281595] | 81.4 |
| O=C(NCCOc1ccc(F)cc1)c1cccc(-n2cccn2)c1 [CBK281596] | 101 |
| CC(C)c1nccn1CC(=O)NCCOc1ccc(F)cc1 [CBK281597] | 89.6 |
| CC1CCCN(CC(C)(C)NC(=O)c2cc(C(F)(F)F)nn2C)C1 (centres unmarked) [CBK281598] | 87.9 |
| CC1(NC(=O)c2cccc(OCCN3CCCC3=O)c2)CCC1 [CBK281602] | 92.8 |
| COc1nn(CC(=O)NC2(C)CCC2)c(=O)c2ccccc12 [CBK281603] | 83.2 |
| CC1(NC(=O)CC(c2ccncc2)c2c[nH]c3ccccc23)CCC1 (centres unmarked) [CBK281610] | 88.8 |
| O=C(c1cc2c(F)cccc2[nH]1)N1CCCCC1CCN1CCCC1 (centres unmarked) [CBK281612] | 85.7 |
| CCn1c(CN2CCC(n3nc(C)cc3C)CC2)nc2ccccc21 [CBK281615] | 88.5 |
| Cc1ccn2c(CN3CCC(n4nc(C)cc4C)CC3)c(C)nc2c1 [CBK281616] | 83.6 |
| Cc1cc(C)n(C2CCN(Cc3c(C)nc4c(C)cccn34)CC2)n1 [CBK281617] | 101 |
| Cc1cc(C)n(C2CCN(Cc3nc4ccccc4n3C)CC2)n1 [CBK281621] | 84.3 |
| Cc1cc(C)n(C2CCN(Cc3ccc4ccccc4n3)CC2)n1 [CBK281622] | 87.9 |
| CCn1cc(-c2cncn2CCOc2ccc(C)cc2)cn1 [CBK281623] | 88.5 |
| CC(NC(=O)CCc1ccncc1)c1ccc2c(c1)CCCO2 (centres unmarked) [CBK281624] | 88.3 |
| Cc1ccn(CCNC(=O)C(C)Cc2cccs2)n1 (centres unmarked) [CBK281625] | 106 |
| COc1ccc(CCNC(=O)c2cc3c([nH]c2=O)CCC3)cc1C [CBK281627] | 83.2 |
| Cc1nc(C)c(C(=O)NC2CCCNC2=O)s1 (centres unmarked) [CBK281628] | 86.8 |
| CCc1nccn1CCC(=O)Nc1ccc2c(c1)nc(CC)n2CC [CBK281629] | 81.2 |
| Cc1ccc2oc(C(=O)N(C)Cc3c(C)nn(C)c3C)c(C)c2c1 [CBK281631] | 80.9 |
| Cc1cc(C(=O)NC(C)Cn2nc(C)cc2C)c2cccc(C)c2n1 (centres unmarked) [CBK281635] | 91.4 |
| CC(NC(=O)Cn1c(=O)oc2ccc(Cl)cc21)C1CC2CCC1C2 (centres unmarked) [CBK281636] | 87.7 |
| Cc1nc(-c2cccnc2)sc1C(=O)NC(C)C1CC2CCC1C2 (centres unmarked) [CBK281637] | 84.2 |

| Structure (SMILES) | viability at 28.5 h, 10 µM [%] |
| --- | --- |
| CCc1nccn1CC(=O)NCC(C)n1nc(C)cc1C (centres unmarked) [CBK281638] | 80.4 |
| Cc1cc(C)n(C(C)CNC(=O)C(C)Cn2cccn2)n1 (centres unmarked) [CBK281639] | 87.6 |
| O=C(C1CC2C=CC1C21CC1)N1CCN(c2nccs2)CC1 (centres unmarked) [CBK281640] | 90.4 |
| O=C(c1ccncc1)N1CCCCC1c1nc2ccccc2[nH]1 (centres unmarked) [CBK281641] | 87.2 |
| COc1ccc(CCNC(=O)CCn2nc(C)c(Cl)c2C)cc1C [CBK281643] | 89.5 |
| CCc1cc(CNC(=O)C(c2ccc(F)cc2)N(C)C)on1 (centres unmarked) [CBK281648] | 88.4 |
| Cc1nc(C)n(CC(=O)N2CCc3sccc3C2c2ccco2)n1 (centres unmarked) [CBK281649] | 98.8 |
| CC(Cn1cc(Cl)cn1)C(=O)NC(C)C1CC2CCC1C2 (centres unmarked) [CBK281650] | 110 |
| Cc1cc(C(=O)NC(C)C2CC3CCC2C3)c2cnn(C(C)C)c2n1 (centres unmarked) [CBK281652] | 96 |
| CCc1nnsc1C(=O)N1CCc2[nH]c3c(C)cccc3c2C1 [CBK281655] | 86.2 |
| CC(C)C(=O)N1C[C@H]2NC(=O)c3ccccc3C(=O)[C@@]2(C)C1 [CBK281658] | 103 |
| CC(C)CC(=O)N1C[C@H]2NC(=O)c3ccccc3C(=O)[C@@]2(C)C1 [CBK281659] | 96.1 |
| CC(C)C(NC(=O)c1cc2c([nH]c1=O)CCC2)c1ccc(F)cc1 (centres unmarked) [CBK281662] | 93.4 |
| Cn1nccc1CN1CCCC(COc2ccccc2F)C1 (centres unmarked) [CBK281663] | 87.2 |
| CC(NC(=O)CCc1ccncc1)c1nc2ccccc2s1 (centres unmarked) [CBK281666] | 98.9 |
| CCc1cc(CNC(=O)C(c2ccc(Cl)cc2)N(C)C)on1 (centres unmarked) [CBK281670] | 96.6 |
| C[C@]12CN(C(=O)C3CCCC3)C[C@H]1NC(=O)c1ccccc1C2=O [CBK281672] | 95.4 |
| CC(C)C(=O)N[C@H]1CC[C@]2(CC1)CNC(=O)c1ccccc1O2 [CBK281675] | 103 |
| CC1CCCN(CC(C)(C)NC(=O)c2cc(C3CC3)on2)C1 (centres unmarked) [CBK281677] | 94.6 |
| Cc1nonc1CNC(=O)C1CC2C=CC1C21CC1 (centres unmarked) [CBK281678] | 91.4 |
| CCN1C(=O)c2ccccc2C(=O)[C@@]2(C)CN(C(=O)C(C)C)C[C@@H]12 [CBK281680] | 91.8 |
| CCC(=O)N[C@H]1CC[C@]2(CC1)CNC(=O)c1ccccc1O2 [CBK281681] | 106 |
| CC(=O)N(C)[C@H]1CC[C@]2(CC1)CNC(=O)c1ccccc1O2 [CBK281682] | 101 |

| Structure (SMILES) | viability at 28.5 h, 10 µM [%] |
| --- | --- |
| CCC(=O)N(C)[C@H]1CC[C@]2(CC1)CNC(=O)c1ccccc1O2 [CBK281683] | 87.5 |
| CN1C(=O)c2ccccc2C(=O)[C@@]2(C)CN(C(=O)c3ccccc3)C[C@@H]12 [CBK281685] | 93.2 |
| Cc1cc2c(cc1NC(=O)[C@@H]1C[C@@H]3C=C[C@H]1C3)n(C)c(=O)n2C [CBK281689] | 106 |
| CCCC(=O)N(C)C1CCC2(CC1)CNC(=O)c1cc(C)ccc1O2 (centres unmarked) [CBK281694] | 88.3 |
| CC(C)(C)NC(=O)Cn1cncc1-c1cnn(-c2ccccc2)c1 [CBK281697] | 106 |
| CN1CCCc2cc(-c3cncn3CC(=O)NC(C)(C)C)ccc21 [CBK281700] | 95 |
| CC(C)(C)NC(=O)Cn1cncc1-c1cnn(C2CCCCC2)c1 [CBK281701] | 93.5 |
| CC(Oc1ccc(F)cc1)C(=O)N(C)CC1(C)COC1 (centres unmarked) [CBK281702] | 89.7 |
| Cc1cc(CN(C)Cc2cnn(-c3ccc(F)cc3)c2)n[nH]1 [CBK281706] | 97.1 |
| CCC1C(=O)NCCN1C(=O)c1ccc2c(c1)ncn2C (centres unmarked) [CBK281709] | 82.4 |
| Cc1cc(CN(C)Cc2cn(C)c3cc(F)ccc23)n[nH]1 [CBK281710] | 89.6 |
| Cc1cc(C)c2cc(C(=O)N(C)CC3(C)COC3)[nH]c2c1 [CBK281711] | 87 |
| CC(NC(=O)c1cc(C(F)(F)F)[nH]n1)c1ccccn1 (centres unmarked) [CBK281712] | 84.8 |
| Cc1cc(C)n(C(C)C(=O)NCC2(N(C)C)CCCC2)n1 (centres unmarked) [CBK281713] | 107 |
| Cc1cccn2cc(C(=O)NC(C)CN3CCCC3)nc12 (centres unmarked) [CBK281714] | 99.6 |
| Cc1ccc(-c2cc(C(=O)N(C)CC3(C)COC3)[nH]n2)cc1 [CBK281717] | 90.9 |
| CN(CC1(C)COC1)C(=O)c1ccc2c(c1)ncn2C1CC1 [CBK281718] | 86.8 |
| Cc1ccc(-n2cc(CN(C)CC3(C)COC3)cn2)cc1 [CBK281720] | 93 |
| CN(CC1(C)COC1)C(=O)C1CC(=O)N(C(C)(C)C)C1 (centres unmarked) [CBK281724] | 112 |
| O=C(Cn1cccn1)NC(CN1CCCCC1)c1ccccc1 (centres unmarked) [CBK281726] | 104 |
| Cc1ccc(-c2cnc(NC(=O)Cn3cccn3)n2C)cc1C [CBK281727] | 102 |
| CCC1C(=O)NCCN1C(=O)Cc1cccc2cccnc12 (centres unmarked) [CBK281728] | 104 |
| Cc1nc2ccccn2c1CN1CCC(N2CCCC2)CC1 [CBK281730] | 108 |
